Reference: PMC8402547, “In Vitro and In Vivo Analysis of Ochratoxin A-Derived Glucuronides and Mercapturic Acids as Biomarkers of Exposure” (Toxins, 2021)

What was measured:
[1] = In vitro incubation of OTA with liver S9 in the presence of GSH or NAC; type: in vitro ADME, human; conditions: for Time-dependent formation from OTA: human liver S9, with NADPH regenerating system, GSH or NAC 5 mM, t = 0, 60, 120 min
Protocol: (§1) Liver S9 fractions from rats (Sprague-Dawley, male, 97 donors, 20 mg/mL) and humans (mixed genders, 50 donors, 20 mg/mL) were obtained from XenoTech (Kansas City, USA). S9 fractions from Goettingen® minipigs and rabbits were prepared in-house based on a modified protocol from Hubbard et al. (1985). Rabbit liver (Blue Vienna x German Giant, female) was obtained from ImmonuGlobe (Himmelstadt, Germany), whereas minipig liver (Goettingen® minipig, male, 42.4 kg bw) was obtained from the University Goettingen, Department of Animal Science.
(§2) For analysis of OTA-derived GSH and NAC conjugates, liver S9 fractions (4 mg/mL) of rats, rabbits, minipigs and humans were incubated with OTA (0.1 mM), GSH or NAC (5 mM) and an NADPH regenerating system (NADP (5 mM), glucose-6-phosphate (5 mM), glucose-6-phosphate-dehydrogenase (1.25 units/mL)) in 100 mM phosphate-buffered saline (pH 7.4) in a total volume of 300 µL at 37 °C for two hours. Control incubations were carried out a) in the absence of GSH/NAC and b) in the absence of the NADPH regenerating system. Aliquots (100 µL) were removed immediately (t = 0) as well as after 60 (t = 60) and 120 (t = 120) minutes, and the enzymatic reaction was stopped by addition of 200 µL ACN and centrifugation (20 min, 4 °C, 20,000× g). The supernatants were removed and stored at −80 °C until further analysis.
(§3) LC–MS/MS analyses were performed on an Agilent 1100 series LC coupled to an API 2000/Q-Trap mass spectrometer (Applied Biosystems/MDS Sciex, Concord, Canada). Samples were injected into the LC–MS/MS system through an Agilent 1100 series autosampler. Separations were carried out on a ReproSil-Pur C18 AQ column (2 mm × 150 mm, 5 µm; Dr. Maisch; Ammerbuch, Germany). Gradient elution of OTA-derived metabolites was carried out with water + 0.1% formic acid (solvent A) and acetonitrile (solvent B). Initially, solvent A was held isocratic for 5 min at 100%, followed by a linear gradient to 95% B in 5 min. These conditions were held for further 5 min. Within 1 min, the gradient decreased linearly to 0% B and remained at initial conditions until the end of analysis (30 min). A flow rate of 0.2 mL/min was used. For each run, 10 µL of the respective sample were injected by the autosampler.
(§4) The API 2000/Q-Trap mass spectrometer was operated with a Turbo Ion Spray source in negative ion mode with a voltage of −4000 V. Spectral data were recorded with N2 as the heater gas at 450 °C and as the collision gas (CAD = −2) in multiple reaction monitoring mode (MRM).
(§5) In addition to MRM, constant neutral loss of 129 amu in the negative ion mode based on the characteristic fragmentation pattern of mercapturic acids was used to screen for N-acetyl-cysteine conjugates of OTA. Furthermore, constant neutral loss of 176 amu in positive ion mode based on the fragmentation pattern of glucuronic acid conjugates was used to screen for OTA glucuronides.

[2] = as above; type: in vitro ADME, rat; conditions: for Time-dependent formation from OTA: rat liver S9, with NADPH regenerating system, GSH or NAC 5 mM, t = 0, 60, 120 min; for Formation from OTA in the absence of the NADPH regenerating system: rat liver S9, no NADPH regenerating system
Protocol: as §1, §2, §3, §4, §5

[3] = as above; type: in vitro ADME, minipig; conditions: for Time-dependent formation from OTA: minipig liver S9, with NADPH regenerating system, GSH or NAC 5 mM, t = 0, 60, 120 min; for Formation from OTA in the absence of the NADPH regenerating system: minipig liver S9, no NADPH regenerating system
Protocol: as §1, §2, §3, §4, §5

[4] = as above; type: in vitro ADME, rabbit; conditions: for Time-dependent formation from OTA: rabbit liver S9, with NADPH regenerating system, GSH or NAC 5 mM, t = 0, 60, 120 min; for Formation from OTA in the absence of the NADPH regenerating system: rabbit liver S9, no NADPH regenerating system
Protocol: as §1, §2, §3, §4, §5

[5] = Direct LC–MS/MS analysis of OTA metabolites in urine of OTA-treated rats; type: in vivo, male F344/N rats; conditions: OTA up to 2 mg/kg bw, negative ionization mode
Protocol: Archived urine samples from previous repeated dose oral toxicity studies on OTA in male F344/N rats were used. The studies were performed according to national animal welfare regulations after authorization by the local authorities (Regierung von Unterfranken, AZ 621-2531.01-9/98 and AZ 54-2531.01-59/05).
14-day study: Male F344 rats (170–190 g) were purchased from Charles-River Laboratories, Sulzfeld, Germany. Animals had free access to water and standard diet (Altromin) and were kept under standard conditions (12 h day/night cycle, temperature 21–23 °C, humidity 45–55%). Rats were transferred to metabolic cages (Tecniplast Metabolic Cage—Rats Over 300 g; Tecniplast, Italy) for collection of urine 3 days prior to dosing. Animals were administered OTA dissolved in corn oil by oral gavage at 0, 0.25, 0.5, 1.0 and 2.0 mg/kg bw for 2 weeks (5 days per week). Urine was collected every 12 h on day 1 of treatment and every 24 h thereafter on ice, aliquoted and stored at −20 °C until further analysis.
90-day study: Male F344/N rats (6–7 weeks old) were purchased from Harlan-Winkelmann, Borchen, Germany. Animals were housed in groups of 5 in Macrolon type-4 cages and allowed free access to pelleted standard rat maintenance diet (SSNIFF, Soest, Germany) and tap water. After a week of acclimatization, rats (n = 5/dose) were exposed to OTA dissolved in corn oil by oral gavage at doses of 0, 21, 70 or 210 µg/kg bw for 2, 4 or 13 weeks (5 days per week). For urine collection, animals were transferred into metabolic cages (Tecniplast Metabolic Cage—Rats Over 300 g; Tecniplast, Italy) 48 h prior to necropsy and fasted for 20 h but allowed free access to tap water. Urine was collected for 24 h on ice, aliquoted and stored at −20 °C until further analysis.
Urine samples were diluted with acetonitrile (2:1), vortexed and cleared via centrifugation (4 °C, 15 min., 2000× g) to precipitate proteins. Of the resulting supernatant, 10 µL were injected into the LC–MS system and analyzed using the method described below.
as §3, §4, §5

SMILES	Time-dependent formation from OTA [1]	Time-dependent formation from OTA [2]	Time-dependent formation from OTA [3]	Time-dependent formation from OTA [4]	Detection in urine of OTA-treated rats by direct LC–MS/MS (MRM) [5]	Formation from OTA in the absence of the NADPH regenerating system ([1]; human liver S9, no NADPH regenerating system)	Formation from OTA in the absence of the NADPH regenerating system [2]	Formation from OTA in the absence of the NADPH regenerating system [3]	Formation from OTA in the absence of the NADPH regenerating system [4]
C[C@H]1OC(=O)c2c(ccc(C(=O)N[C@@H](Cc3ccccc3)C(=O)O)c2O)[C@H]1O [4-hydroxy-OTB]	not observed	not observed	not observed	not observed					
C[C@@H]1Cc2c(Cl)cc(C(=O)O)c(O)c2C(=O)O1 [OTalpha]					consistently found				
C[C@@H](O)Cc1c(Cl)cc(C(=O)N[C@@H](Cc2ccccc2)C(=O)O)c(O)c1C(=O)O [OP-OTA]		observed	observed		traces	not formed	not formed	not formed	not formed
CC(=O)NC(CSc1c(O)c2c(c(O)c1C(=O)N[C@@H](Cc1ccccc1)C(=O)O)C(=O)O[C@H](C)C2)C(=O)O (stereo partly drawn) [OTHQ-NAC]	not evident	not evident	not evident	not evident	not detected				
CC(=O)NC(CSc1cc(C(=O)N[C@@H](Cc2ccccc2)C(=O)O)c(O)c2c1C[C@@H](C)OC2=O)C(=O)O (stereo partly drawn) [OTB-NAC]	not evident	not evident	not evident	not evident	did not confirm the presence				
C[C@@H]1Cc2c(O)cc(C(=O)N[C@@H](Cc3ccccc3)C(=O)O)c(O)c2C(=O)O1 [OTHQ]	not observed	not observed	not observed	not observed	not detected				
C[C@@H]1Cc2ccc(C(=O)N[C@@H](Cc3ccccc3)C(=O)O)c(O)c2C(=O)O1 [OTB]	no time-dependent increase	no time-dependent increase	no time-dependent increase	no time-dependent increase					
C[C@@H]1Cc2c(O)c(SC[C@H](NC(=O)CC[C@H](N)C(=O)O)C(=O)NCC(=O)O)c(C(=O)N[C@@H](Cc3ccccc3)C(=O)O)c(O)c2C(=O)O1 [OTHQ-GSH]	not evident	not evident	not evident	not evident			detected	detected	detected
C[C@@H]1Cc2c(SC[C@H](NC(=O)CC[C@H](N)C(=O)O)C(=O)NCC(=O)O)cc(C(=O)N[C@@H](Cc3ccccc3)C(=O)O)c(O)c2C(=O)O1 [OTB-GSH]	not evident	not evident	not evident	not evident					
